# Assay results reported in patent US11179397B2, “Imidazopyrimidine derivatives” (Gilead Sciences, Inc., priority 2018, dated 2021).
# Assays:
# [1] = molecular target: SHP-2 full length protein (Homo sapiens (Human), UniProt Q06124); assay: SHP-2 biochemical DiFMUP pseudosubstrate-fluorogenic assay; details: 0.2 nM SHP-2, 1 μM IRS-1 activator peptide, 50 μM DiFMUP; read-out: SHP2 IC50
# Procedure: SHP-2 Biochemical Assay Materials Recombinant SHP-2 full length protein was generated in house. SHP-2 protein tyrosine phosphatase (PTP) domain protein (Catalog number SPR0217-20 ug), NaCl (Catalog number S6546-1L), and KCl (Catalog number 60142-500 mL) were purchased from Sigma-Aldrich (St. Louis, Mo.). IRS-1_[…](dPEG8)[…] peptide […]) was custom made by AnaSpec (Fremont, Calif.). DiFMUP substrate (Catalog number D6567), EDTA (Catalog number E177-500 mL), DTT (Catalog number P2325), and 384-well black polystyrene non-binding surface (Catalog number 3820) were purchased from Fisher Scientific (Hanover Park, Ill.). HEPES (Catalog number 15630-080) was purchased from Life Technologies (Pleasanton, Calif.), and Tween-20 (Catalog number 95059-250) was purchased from VWR (Radnor, Pa.). Method Inhibition of SHP-2 activity by small molecule inhibitors was monitored by a biochemical DiFMUP pseudosubstrate-fluorogenic assay. […] The reaction mix was added to the 384-well non-binding plate which had been pre-spotted with 1:3 serial diluted compounds from 10,000-0.005 nM, and incubated at room temperature for 90 min. DiFMUP substrate at final concentration of 50 μM was then added to the wells and incubated for additional 30 min at room temperature. The final reaction volume was 20 μl/well. […] The inhibitor dose response curves were generated using normalized IC50 regression curve fitting by in house dose response analysis tools. The wells with DMSO vehicle were used as controls (100% signal). The percent (%) control of SHP-2 compound was calculated as: (Compound well fluorescence counts/DMSO fluorescence counts)×100%.
# NCI-H358 cells = assay: NCI-H358 3D tumor spheroid growth inhibition; type: cell-based; details: Homo sapiens, NCI-H358, 168 h, 3D spheroids, 7 days, 3D CellTiter Glo; cellular IC50 designated EC50; read-out: H358 EC50
# Source text: SHP-2 Cell Based Assay: […] Materials NCI-H358 cell line was purchased from [NT] number ATCC CRL-5807) (Manassas, Va.). RPMI-1640 (Catalog number 10-040-CM) was from Corning Cellgro (Manassas, Va.), Fetal Bovine Serum (FBS) (Catalog number SH30071.03) was from HyClone (Logan, Utanh), and 100× Penicillin/Streptomycin/L-Glutamine stock (Catalog no. 30-009-CI) and 384-well ULA plates (Catalog number 3830) were from Corning (Fremont, Calif.). Method […] At the day of assay, the cells were trypsinized and seeded at 1000 cells/70 μl/well in 384-well ULA plates and incubated at 37° C. incubator with 5% CO2 to allow spheroids to form. […] The plates were incubated for additional 7 days. Then 35 μl of medium from each well was removed, and replaced with 35 μl of 3D CellTiter Glo reagent from Promega. The wells were mixed by pipetting up and down with Biomek FX for 15 times to induce cell lysis and the plates were incubated at room temperature for additional 10 min to stabilize luminescent signal. The luminescence was then read by Envision. The inhibitor dose response curves were generated using normalized cellular IC50 (designated as EC50 in all FIGURES to distinguish from biochemical IC50s) by in house dose response analyses tools. The wells with DMSO vehicle were used as negative controls (0% inhibition). The % inhibition of SHP-2 compounds was calculated as: 100-[(Compound well luminescence counts/DMSO luminescence counts)×100%].
Structure (SMILES),IC50 [1] [nM],EC50 (NCI-H358 cells) [nM]
"C[C@@H]1OCC2(CCN(c3ncc(Sc4cccc(Cl)c4Cl)c4nccn34)CC2)[C@@H]1N [Example 55, (3S,4S)-8-(8-((2,3-dichlorophenyl)thio)imidazo[1,2-c]pyrimidin-5-yl)-3-methyl-2-oxa-8-azaspiro[4.5]decan-4-amine]",1.5,49
"CC1(N)CCN(c2ncc(Sc3cccc(Cl)c3Cl)c3nncn23)CC1 [Example 61, 1-(8-((2,3-dichlorophenyl)thio)-[1,2,4]triazolo[4,3-c]pyrimidin-5-yl)-4-methylpiperidin-4-amine]",130,2300
"CC1(N)CCN(c2ncc(Sc3cccc(Cl)c3Cl)c3ncnn23)CC1 [Example 62, 1-(8-((2,3-dichlorophenyl)thio)-[1,2,4]triazolo[1,5-c]pyrimidin-5-yl)-4-methylpiperidin-4-amine]",1300,> 12500
"Nc1nccc(Sc2cnc(N3CCC4(CCC[C@H]4N)CC3)n3cnnc23)c1Cl [Example 63, (R)-8-(8-((2-amino-3-chloropyridin-4-yl)thio)-[1,2,4]triazolo[4,3-c]pyrimidin-5-yl)-8-azaspiro[4.5]decan-1-amine]",13,580
"N[C@@H]1CCCC12CCN(c1ncc(Sc3cncc4ccccc34)c3nccn13)CC2 [Example 70, (R)-8-(8-(isoquinolin-4-ylthio)imidazo[1,2-c]pyrimidin-5-yl)-8-azaspiro[4.5]decan-1-amine]",670,3900
"C[C@@H]1OCC2(CCN(c3ncc(Oc4cccc(Cl)c4Cl)c4nccn34)CC2)[C@@H]1N [Example 71, (3S,4S)-8-(8-(2,3-dichlorophenoxy)imidazo[1,2-c]pyrimidin-5-yl)-3-methyl-2-oxa-8-azaspiro[4.5]decan-4-amine]",120,1400
"N[C@@H]1CCCC12CCN(c1ncc(Nc3cccc(Cl)c3Cl)c3nccn13)CC2 [Example 72, (R)-8-(8-((2,3-dichlorophenyl)amino)imidazo[1,2-c]pyrimidin-5-yl)-8-azaspiro[4.5]decan-1-amine]",2000,> 12500
"Cc1nc(N2CCC3(CCC[C@H]3N)CC2)n2ccnc2c1-c1ccc2c(c1)OC(F)(F)O2 [Example 74, (R)-8-(8-(2,2-difluorobenzo[d][1,3]dioxol-5-yl)-7-methylimidazo[1,2-c]pyrimidin-5-yl)-8-azaspiro[4.5]decan-1-amine]",860,> 12500
"Cc1nc(N2CCC3(CC2)C[C@@H](O)C[C@H]3N)n2ccnc2c1Sc1cccc(Cl)c1Cl [Example 75, (2R,4R)-4-amino-8-(8-((2,3-dichlorophenyl)thio)-7-methylimidazo[1,2-c]pyrimidin-5-yl)-8-azaspiro[4.5]decan-2-ol]",3.9,48
"Cc1nc(N2CCC3(CC2)CO[C@@H](C)[C@H]3N)n2ccnc2c1Sc1cccc(Cl)c1Cl [Example 76, (3S,4S)-8-(8-((2,3-dichlorophenyl)thio)-7-methylimidazo[1,2-c]pyrimidin-5-yl)-3-methyl-2-oxa-8-azaspiro[4.5]decan-4-amine]",3.3,59
"N[C@@H]1CCCC12CCN(c1ncc(SC3CCCCC3)c3nccn13)CC2 [Example 79, (R)-8-(8-(cyclohexylthio)imidazo[1,2-c]pyrimidin-5-yl)-8-azaspiro[4.5]decan-1-amine]",5300,> 12500

# Other lines, results leading:
IC50 [1] [nM],EC50 (NCI-H358 cells) [nM],Structure (SMILES)
5.6,170,"Nc1nccc(Sc2cnc(N3CCC4(CCC[C@H]4N)CC3)n3ccnc23)c1Cl [Example 45, (R)-8-(8-((2-amino-3-chloropyridin-4-yl)thio)imidazo[1,2-c]pyrimidin-5-yl)-8-azaspiro[4.5]decan-1-amine]"
3.1,31,"N[C@@H]1CCCC12CCN(c1ncc(Sc3ccnc(Cl)c3Cl)c3nccn13)CC2 [Example 46, (R)-8-(8-((2,3-dichloropyridin-4-yl)thio)imidazo[1,2-c]pyrimidin-5-yl)-8-azaspiro[4.5]decan-1-amine]"
7.6,150,"Cc1nccc(Sc2cnc(N3CCC4(CCC[C@H]4N)CC3)n3ccnc23)c1Cl [Example 47, (R)-8-(8-((3-chloro-2-methylpyridin-4-yl)thio)imidazo[1,2-c]pyrimidin-5-yl)-8-azaspiro[4.5]decan-1-amine]"
120,1700,"CC1(N)CCN(c2ncc(Sc3cccc(Cl)c3Cl)c3nccn23)CC1 [Example 48, 1-(8-((2,3-dichlorophenyl)thio)imidazo[1,2-c]pyrimidin-5-yl)-4-methylpiperidin-4-amine]"
280,> 12500,"N[C@@H]1CCCC12CCN(c1ncc(-c3cccc(Cl)c3Cl)c3nccn13)CC2 [Example 52, (R)-8-(8-(2,3-dichlorophenyl)imidazo[1,2-c]pyrimidin-5-yl)-8-azaspiro[4.5]decan-1-amine]"
75,990,"NC1CCCN(c2ncc(Sc3cccc(Cl)c3Cl)c3nccn23)CC1 (stereo not shown) [Example 56, 1-(8-((2,3-dichlorophenyl)thio)imidazo[1,2-c]pyrimidin-5-yl)azepan-4-amine]"
500,> 12500,"Clc1cccc(Sc2cnc(N3CCC4(CCCCN4)CC3)n3ccnc23)c1Cl [Example 57, 9-(8-((2,3-dichlorophenyl)thio)imidazo[1,2-c]pyrimidin-5-yl)-1,9-diazaspiro[5.5]undecane]"
340,4400,"NC1CC2(CCN(c3ncc(Sc4cccc(Cl)c4Cl)c4nccn34)C2)C1 (stereo not shown) [Example 58, 6-(8-((2,3-dichlorophenyl)thio)imidazo[1,2-c]pyrimidin-5-yl)-6-azaspiro[3.4]octan-2-amine]"
140,2900,"Cc1nc(N2CCC3(CCC[C@H]3N)CC2)n2cnnc2c1-c1cnc(N)c(Cl)c1Cl [Example 66, (R)-8-(8-(6-amino-4,5-dichloropyridin-3-yl)-7-methyl-[1,2,4]triazolo[4,3-c]pyrimidin-5-yl)-8-azaspiro[4.5]decan-1-amine]"
6.4,100,"Cc1nc(N2CCC3(CC2)CO[C@@H](C)[C@H]3N)n2cnnc2c1-c1cccc(Cl)c1Cl [Example 67, (3S,4S)-8-(8-(2,3-dichlorophenyl)-7-methyl-[1,2,4]triazolo[4,3-c]pyrimidin-5-yl)-3-methyl-2-oxa-8-azaspiro[4.5]decan-4-amine]"
9.4,440,"Cc1nc(N2CCC3(CC2)C[C@@H](O)C[C@H]3N)n2cnnc2c1-c1cccc(Cl)c1Cl [Example 68, (2R,4R)-4-amino-8-(8-(2,3-dichlorophenyl)-7-methyl-[1,2,4]triazolo[4,3-c]pyrimidin-5-yl)-8-azaspiro[4.5]decan-2-ol]"
3.1,86,"N[C@@H]1CCCC12CCN(c1nc(Cl)c(-c3cccc(Cl)c3Cl)c3nccn13)CC2 [Example 69, (R)-8-(7-chloro-8-(2,3-dichlorophenyl)imidazo[1,2-c]pyrimidin-5-yl)-8-azaspiro[4.5]decan-1-amine]"
30,550,"Cc1nc(N2CCC3(CCC[C@H]3N)CC2)n2ccnc2c1-c1ccc2cn[nH]c2c1 [Example 73, (R)-8-(8-(1H-indazol-6-yl)-7-methylimidazo[1,2-c]pyrimidin-5-yl)-8-azaspiro[4.5]decan-1-amine]"
180,3100,"N[C@@H]1CCCC12CCN(c1ncc(Sc3ccc4cn[nH]c4c3)c3nccn13)CC2 [Example 77, (R)-8-(8-((1H-indazol-6-yl)thio)imidazo[1,2-c]pyrimidin-5-yl)-8-azaspiro[4.5]decan-1-amine]"
5.9,95,"N[C@@H]1CCCC12CCN(c1ncc(Sc3ccnc4ccccc34)c3nccn13)CC2 [Example 78, (R)-8-(8-(quinolin-4-ylthio)imidazo[1,2-c]pyrimidin-5-yl)-8-azaspiro[4.5]decan-1-amine]"
